Measured values from publication PMC6567057, “Pharmacokinetic, metabolic stability, plasma protein binding and CYP450s inhibition/induction assessment studies of N-(2-pyridylmethyl)-2-hydroxiymethyl-1-pyrrolidinyl-4-(3-chloro-4-methoxy-benzylamino)-5-pyrimidine-carboxamide as potential type 5 phosphodiesterase inhibitors” (Animal Cells and Systems, 2019).

What was measured:
CYP2C19 = molecular target: T1, CYP2C19 (Homo sapiens, UniProt P33261); experiment: CYP isozyme inhibition in human liver microsomes; format: in vitro ADME; conditions: calculated from inhibition at 3 μM
T1 construct: tissue BD Gentest; host or cells: pooled human liver microsomes
T1 sequence (P33261 whole entry): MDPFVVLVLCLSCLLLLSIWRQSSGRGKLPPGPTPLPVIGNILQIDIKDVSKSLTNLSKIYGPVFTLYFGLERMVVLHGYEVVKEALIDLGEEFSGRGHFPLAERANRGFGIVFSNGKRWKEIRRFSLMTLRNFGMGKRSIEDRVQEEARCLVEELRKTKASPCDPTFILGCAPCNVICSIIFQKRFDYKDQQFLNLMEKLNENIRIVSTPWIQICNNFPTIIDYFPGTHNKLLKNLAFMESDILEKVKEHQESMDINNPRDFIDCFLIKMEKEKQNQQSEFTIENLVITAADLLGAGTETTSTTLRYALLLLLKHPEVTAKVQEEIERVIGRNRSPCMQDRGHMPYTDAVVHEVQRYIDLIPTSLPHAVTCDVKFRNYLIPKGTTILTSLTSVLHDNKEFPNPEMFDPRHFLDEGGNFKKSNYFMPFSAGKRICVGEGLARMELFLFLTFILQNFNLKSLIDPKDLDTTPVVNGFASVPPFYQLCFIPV
Method: (§1) The stock solutions of the probe substrates phenacetin (20.0 mM), diclofenac (20.0 mM), S-mephenytoin (30 mM), dextromethorphan (10.0 mM), midazolam (10.00 mM) and testosterone (50.0 mM) were prepared using methanol, while α-Naphtoflavone (3.0 mM), sulfaphenazole (3.0 mM), N-3-benzylnirvanol (3.0 mM), quinidine (3.0 mM), ketoconazole (3.0 mM) and NHPPC (10.0 mM) were prepared using DMSO, and diluted with phosphate buffer (PB, 100 mM, pH 7.4) before added into the incubation system. The organic solvents in the final incubate were no more than 0.20%. The incubation medium was 100 mM phosphate buffered saline, and the final incubation volume was 200 μL containing 25 pmol/mL human liver microsomes CYP enzyme, probe substrate, 1 mM NADPH and NHPPC at 3.00 μM. The reactions were initiated after 5 min pre-incubation at 37°C and were terminated by the addition of 400 μL ice-cold acetonitrile. All incubations were conducted in triplicate, and the samples were stored at −80°C until analysis. Calculation of IC50 was performed by using following equations, where C is concentration of test compounds.

CYP1A2 [1] = molecular target: T2, CYP1A2 (Homo sapiens, UniProt P05177); experiment: CYP isozyme inhibition in human liver microsomes; format: in vitro ADME; conditions: calculated from inhibition at 3 μM
T2 construct: tissue BD Gentest; host or cells: pooled human liver microsomes
T2 sequence (P05177 1-516): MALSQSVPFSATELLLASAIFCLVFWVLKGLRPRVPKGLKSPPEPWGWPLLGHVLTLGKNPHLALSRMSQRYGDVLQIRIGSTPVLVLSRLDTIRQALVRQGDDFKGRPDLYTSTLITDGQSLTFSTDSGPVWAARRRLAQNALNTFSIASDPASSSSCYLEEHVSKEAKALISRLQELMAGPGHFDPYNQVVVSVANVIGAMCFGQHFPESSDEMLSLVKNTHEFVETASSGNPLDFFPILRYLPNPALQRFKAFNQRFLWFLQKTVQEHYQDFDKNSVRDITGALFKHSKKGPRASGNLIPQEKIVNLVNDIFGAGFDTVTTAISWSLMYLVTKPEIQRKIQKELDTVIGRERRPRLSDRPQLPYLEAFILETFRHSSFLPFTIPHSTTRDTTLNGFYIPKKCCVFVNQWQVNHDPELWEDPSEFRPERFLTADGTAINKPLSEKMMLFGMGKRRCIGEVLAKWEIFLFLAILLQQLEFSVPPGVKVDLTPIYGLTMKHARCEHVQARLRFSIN
Method: as §1

CYP2D6 = molecular target: T3, CYP2D6 (Homo sapiens, UniProt P10635); experiment: CYP isozyme inhibition in human liver microsomes; format: in vitro ADME; conditions: calculated from inhibition at 3 μM
T3 construct: tissue BD Gentest; host or cells: pooled human liver microsomes
T3 sequence (P10635 whole entry): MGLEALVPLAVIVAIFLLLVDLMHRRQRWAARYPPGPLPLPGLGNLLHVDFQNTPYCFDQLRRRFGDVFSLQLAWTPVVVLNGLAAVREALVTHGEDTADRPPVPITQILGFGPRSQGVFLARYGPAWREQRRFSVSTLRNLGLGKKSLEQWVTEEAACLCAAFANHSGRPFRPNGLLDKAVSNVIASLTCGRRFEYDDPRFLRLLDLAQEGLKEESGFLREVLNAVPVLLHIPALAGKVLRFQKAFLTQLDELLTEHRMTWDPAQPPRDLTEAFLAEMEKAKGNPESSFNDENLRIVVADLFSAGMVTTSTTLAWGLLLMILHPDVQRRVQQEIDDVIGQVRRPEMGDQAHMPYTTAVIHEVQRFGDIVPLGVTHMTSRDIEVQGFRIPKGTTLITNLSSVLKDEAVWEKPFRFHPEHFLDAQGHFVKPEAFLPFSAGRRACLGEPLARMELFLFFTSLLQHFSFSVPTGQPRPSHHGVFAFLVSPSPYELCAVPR
Method: as §1

CYP2C9 = molecular target: T4, CYP2C9 (Homo sapiens, UniProt P11712); experiment: CYP isozyme inhibition in human liver microsomes; format: in vitro ADME; conditions: calculated from inhibition at 3 μM
T4 construct: tissue BD Gentest; host or cells: pooled human liver microsomes
T4 sequence (P11712 whole entry): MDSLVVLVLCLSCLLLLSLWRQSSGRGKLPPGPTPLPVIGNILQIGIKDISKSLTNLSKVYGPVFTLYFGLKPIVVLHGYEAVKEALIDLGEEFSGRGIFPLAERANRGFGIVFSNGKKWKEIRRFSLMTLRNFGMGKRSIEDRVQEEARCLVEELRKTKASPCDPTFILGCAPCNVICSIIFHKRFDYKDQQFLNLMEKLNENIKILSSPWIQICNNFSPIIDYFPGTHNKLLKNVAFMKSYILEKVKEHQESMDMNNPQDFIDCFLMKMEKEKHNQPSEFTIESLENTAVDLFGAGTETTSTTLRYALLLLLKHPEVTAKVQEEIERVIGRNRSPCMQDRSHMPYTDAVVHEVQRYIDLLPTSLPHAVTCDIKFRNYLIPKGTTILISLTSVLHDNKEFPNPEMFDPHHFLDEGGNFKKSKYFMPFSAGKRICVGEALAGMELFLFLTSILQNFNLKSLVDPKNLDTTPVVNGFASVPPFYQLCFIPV
Method: as §1

CYP3A4 [2] = molecular target: T5, CYP3A4 (Homo sapiens, UniProt P08684); experiment: CYP isozyme inhibition in human liver microsomes; format: in vitro ADME; conditions: calculated from inhibition at 3 μM
T5 construct: tissue BD Gentest; host or cells: pooled human liver microsomes
T5 sequence (P08684 whole entry): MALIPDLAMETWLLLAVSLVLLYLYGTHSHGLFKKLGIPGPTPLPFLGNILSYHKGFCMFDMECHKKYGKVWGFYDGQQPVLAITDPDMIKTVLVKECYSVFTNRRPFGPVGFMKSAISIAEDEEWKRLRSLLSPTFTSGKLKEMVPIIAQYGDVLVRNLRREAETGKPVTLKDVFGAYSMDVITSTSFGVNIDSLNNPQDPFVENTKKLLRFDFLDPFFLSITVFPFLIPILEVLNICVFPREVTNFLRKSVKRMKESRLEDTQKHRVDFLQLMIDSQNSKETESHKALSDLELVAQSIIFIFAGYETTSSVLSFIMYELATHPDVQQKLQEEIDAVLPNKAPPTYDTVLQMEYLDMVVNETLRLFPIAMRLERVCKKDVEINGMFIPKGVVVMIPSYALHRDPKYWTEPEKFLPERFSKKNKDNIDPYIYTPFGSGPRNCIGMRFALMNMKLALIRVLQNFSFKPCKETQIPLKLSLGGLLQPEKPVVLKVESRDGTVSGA
Method: as §1

rabbit model = experiment: Preliminary efficacy experiment of rabbit model in vivo; conditions: compared with avanafil, data not published
[3] = Stability in plasma, 6 h incubation at 37°C (dog); format: in vitro ADME; conditions: beagle
Method: The phosphate buffer (100 mM) and sodium hydroxide solution (1.0 M) were prepared in deionized water. […] PPB was determined by equilibrium dialysis method. An aliquot (150 μL) of NHPPC spiked plasma and phosphate buffer (pH 7.4) was added into the donor side and the receiver side of each designated well. The plate was covered with adhesive sealing film to prevent evaporation and placed in a water-bath shaker kept at 37°C for 6 h with a rate of 50 rpm. […] At the end of 6 h, aliquots were taken from each side of each well (n = 3) and kept in a −20°C freezer prior to analysis. The stability, device recovery and PPB were calculated using the following equations: Remaining at 6 h (%)=C6h/C0h×100%, Device recovery (%)=CDonor+CReceiver/C6h×100%, PPB (%)=CDonor−CReceiver/CDonor×100%.

CYP3A4 [4] = experiment: CYP induction in human primary hepatocytes; format: in vitro ADME; conditions: CYP3A4, human primary hepatocytes of three batches, 0.10, 1.00 or 10.0 μM, 72 h
Method: (§2) The hepatocytes were seeded on a collagenated 48-well plate for 24 h in an incubator at 37°C (moisturized, with 5% CO2). The hepatocytes were then incubated with the test article thereafter. The stock solutions of omeprazole (100 mM), rifampin (20.0 mM), testosterone (200 mM), phenacetin (100 mM) and NHPPC (50.0 mM) were prepared in DMSO, and were diluted using the cell culture medium. The DMSO content in the final solutions was 0.10%, the medium containing 0.10% DMSO was used as the blank control. The cells were co-incubated with the positive control inducers or NHPPC for 72 h and during the incubation the medium was changed every day. After the incubation, the medium was discarded and replaced with 200 μL phenol red-free culture medium containing 100 μM phenacetin (CYP1A2 probe substrate) or 200 μM testosterone (CYP3A4 probe substrate). After the incubation in the presence of the probe substrates at 37°C for 1 h, the supernatants were collected and stored at −80°C until analysis. All incubations were also conducted in triplicate. The generated metabolites of the CYP1A2 and CYP3A4 probe substrates were analyzed by LC/MS/MS methods. The induction effects of the positive control inducers and NHPPC were assessed by the amount of metabolites formed in the induced and uninduced hepatocytes. The percent induction of positive control was calculated using the following equation. […]

CYP1A2 [5] = experiment: CYP induction in human primary hepatocytes; format: in vitro ADME; conditions: CYP1A2, human primary hepatocytes of three batches, 0.10, 1.00 or 10.0 μM, 72 h
Method: as §2

For COc1ccc(CNc2nc(N3CCC[C@H]3CO)ncc2C(=O)NCc2ccccn2)cc1Cl [NHPPC, N-(2-pyridylmethyl)-2-hydroxiymethyl-1-pyrrolidinyl-4-(3-chloro-4-methoxy-benzylamino)-5-pyrimidine-carboxamide], the IC50 (CYP2C19) was greater than 100 µM, the IC50 (CYP1A2 [1]) was greater than 100 µM and the IC50 (CYP2D6) was greater than 100 µM. The IC50 (CYP2C9) was 21.9 µM, the IC50 (CYP3A4 [2]; CYP3A4 (midazolam based)) was greater than 100 µM and the IC50 (CYP3A4 [2]; CYP3A4 (testosterone based)) was greater than 100 µM. The preliminary efficacy (rabbit model) was “stronger than avanafil”, the remaining at 6 h, 0.2 µM ([3]; 0.2 µM, n = 3, read-out: Mean drug remaining %) was 99.6 ± 0.53% and the remaining at 6 h, 1 µM ([3]; 1 µM, n = 3, read-out: Mean drug remaining %) was 100.4 ± 0.98%. For the same molecule, the remaining at 6 h ([3]; mean of 0.2 and 1 µM, read-out: Mean drug remaining %) was 100 ± 1.24%, the “percent induction of positive control” value (CYP3A4 [4]) was “less than 40%” and the “percent induction of positive control” value (CYP1A2 [5]) was “less than 40%”.
